Assay results published in ChEMBL document CHEMBL3124796, “Suzuki coupling based synthesis and in vitro cytotoxic evaluation of 7-heteroaryl-substituted camptothecin analogs” (Bioorg Med Chem Lett, 2014).
Calls of active or inactive are those of the source. No cut-off for these calls is given here.

Experiments:
[1] = target: T1, DNA topoisomerase 1 (Homo sapiens) (UniProt P11387); test: Inhibition of topoisomerase 1 (unknown origin)-mediated relaxation of supercoiled pBR322 DNA at 100 uM by agarose gel electrophoresis
T1 sequence (whole entry): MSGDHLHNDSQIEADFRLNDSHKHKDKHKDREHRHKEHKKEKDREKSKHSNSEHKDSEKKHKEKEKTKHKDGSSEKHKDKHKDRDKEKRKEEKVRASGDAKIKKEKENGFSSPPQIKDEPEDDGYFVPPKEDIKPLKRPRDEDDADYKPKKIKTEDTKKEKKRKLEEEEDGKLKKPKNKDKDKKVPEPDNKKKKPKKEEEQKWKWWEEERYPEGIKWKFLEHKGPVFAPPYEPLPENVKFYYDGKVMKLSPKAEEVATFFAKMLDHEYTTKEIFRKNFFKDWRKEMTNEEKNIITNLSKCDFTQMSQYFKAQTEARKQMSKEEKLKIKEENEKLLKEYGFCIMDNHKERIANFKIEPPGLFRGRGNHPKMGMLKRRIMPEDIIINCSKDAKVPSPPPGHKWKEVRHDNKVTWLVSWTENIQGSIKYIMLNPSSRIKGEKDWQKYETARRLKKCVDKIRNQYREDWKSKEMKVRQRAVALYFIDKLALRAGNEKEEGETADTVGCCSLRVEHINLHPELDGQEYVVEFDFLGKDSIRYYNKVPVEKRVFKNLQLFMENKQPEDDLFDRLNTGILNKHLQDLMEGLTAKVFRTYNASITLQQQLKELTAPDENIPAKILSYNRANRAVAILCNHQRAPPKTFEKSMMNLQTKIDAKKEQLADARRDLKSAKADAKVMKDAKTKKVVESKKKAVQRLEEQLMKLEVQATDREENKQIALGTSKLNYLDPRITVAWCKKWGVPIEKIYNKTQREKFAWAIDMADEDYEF

HT-29 = test: Cytotoxicity against human HT-29 cells assessed as growth inhibition after 3 days by SRB assay; type: functional, cell-based; settings: HT-29, 72 h
HCT-116 [2] = test: Cytotoxicity against human HCT116 cells assessed as growth inhibition after 3 days by SRB assay; type: functional, cell-based; settings: HCT-116, 72 h
A549 [3] = test: Cytotoxicity against human A549 cells assessed as growth inhibition after 3 days by SRB assay; type: functional, cell-based; settings: A549, 72 h
HCT-116 [4] = test: Cytotoxicity against human HCT116 cells; type: functional, cell-based
MDA-MB-231 = test: Cytotoxicity against human MDA-MB-231 cells; type: functional, cell-based
A549 [5] = test: Cytotoxicity against human A549 cells; type: functional, cell-based
[6] = target: T1, DNA topoisomerase 1 (Homo sapiens); test: Inhibition of topoisomerase 1 (unknown origin)-mediated relaxation of supercoiled pBR322 DNA at 10 uM by agarose gel electrophoresis

Structure (SMILES): CC[C@@]1(O)C(=O)OCc2c1cc1n(c2=O)Cc2c-1nc1ccccc1c2-c1ccc2cc[nH]c2c1
- inhibition [1]: Active
- IC50 (HT-29): 231 nM
- IC50 (HCT-116 [2]): 83.5 nM
- IC50 (A549 [3]): 11.1 nM

Structure (SMILES): CC[C@@]1(O)C(=O)OCc2c1cc1n(c2=O)Cc2c-1nc1ccccc1c2-c1ccc2cn[nH]c2c1
- inhibition [1]: Active
- IC50 (HT-29): 57 nM
- IC50 (HCT-116 [2]): 11 nM
- IC50 (A549 [3]): 3.18 nM

Structure (SMILES): CCCCn1cc(-c2c3c(nc4ccccc24)-c2cc4c(c(=O)n2C3)COC(=O)[C@]4(O)CC)nn1
- IC50 (HCT-116 [4]): 14 nM
- IC50 (MDA-MB-231): < 10 nM
- IC50 (A549 [5]): < 10 nM

Structure (SMILES): CC[C@@]1(O)C(=O)OCc2c1cc1n(c2=O)Cc2c-1nc1ccccc1c2-c1cnn(C2CCCCO2)c1 (stereo partly drawn)
- inhibition [1]: Active
- IC50 (HT-29): 90.7 nM
- IC50 (HCT-116 [2]): 40 nM
- IC50 (A549 [3]): 7.26 nM

Structure (SMILES): CC[C@@]1(O)C(=O)OCc2c1cc1n(c2=O)Cc2c-1nc1ccccc1c2-c1cccnc1
- inhibition [1]: inactive
- IC50 (HT-29): 133 nM
- IC50 (HCT-116 [2]): 60 nM
- IC50 (A549 [3]): 5 nM

Structure (SMILES): CCc1c2c(nc3ccc(O)cc13)-c1cc3c(c(=O)n1C2)COC(=O)[C@]3(O)CC [7-ETHYL-10-HYDROXYCAMPTOTHECIN]
- IC50 (HCT-116 [4]): 166 nM
- IC50 (HT-29): 107 nM
- IC50 (MDA-MB-231): 176 nM
- IC50 (HCT-116 [2]): 31 nM
- IC50 (A549 [3]): 2.72 nM
- IC50 (A549 [5]): 259 nM

Structure (SMILES): CC[C@@]1(O)C(=O)OCc2c1cc1n(c2=O)Cc2c-1nc1ccccc1c2-c1ccnn1C
- inhibition [1]: inactive
- IC50 (HT-29): > 1000 nM
- IC50 (HCT-116 [2]): 458 nM
- IC50 (A549 [3]): 56.3 nM

Structure (SMILES): CC[C@@]1(O)C(=O)OCc2c1cc1n(c2=O)Cc2c-1nc1ccccc1c2-c1cnn(C)c1
- inhibition [6]: Active
- inhibition [1]: Active
- IC50 (HT-29): 21.8 nM
- IC50 (HCT-116 [2]): 3.51 nM
- IC50 (A549 [3]): 2.85 nM

Structure (SMILES): CC[C@@]1(O)C(=O)OCc2c1cc1n(c2=O)Cc2c-1nc1ccccc1c2-c1ccncc1
- inhibition [1]: inactive
- IC50 (HT-29): 98.7 nM
- IC50 (HCT-116 [2]): 45.5 nM
- IC50 (A549 [3]): 6.33 nM
